In patent publication US20090275583A1, “ANTIVIRAL COMPOUNDS AND USE THEREOF” (Myriad Genetics, Incorporated, priority 2006, published 2009):

Key:
[1] = system: HIV-1NL4-3; assay: P4-MAGI assay; type: cell-based; conditions: Human immunodeficiency virus 1, 24 h, P4 cells, 24 hour incubation, β-galactosidase expression; read-out: P4-MAGI IC50
In short: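 HeLa-derived CD4+ P4 cells carrying an LTR-driven lacZ were infected with HIV-1NL4-3 at MOI 1 with DEAE-Dextran, then compound added in increasing concentrations right after virus; infection reported as Tat-induced β-galactosidase. TC50 measured by WST-1 in mock-infected cells.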

[2] = system: HIV-1 laboratory strain, NL4-3; assay: MT-4 cytoprotection assay; type: cell-based; conditions: Human immunodeficiency virus 1, NL43, MT4, 96 h; MT-4 cells, four days incubation, WST-1 readout; read-out: MT4 EC50
In short: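 MT-4 cells mock- or batch-infected with NL4-3 (MOI 0.0005) for 2 h, washed, then cultured 4 days with increasing compound concentrations. Viability read by WST-1 tetrazolium reduction: cytoprotection in infected cells, toxicity in mock-infected cells.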

`C=C(C)[C@@H]1CC[C@]2(C(=O)NCc3cccc(C(=O)NCCCCC(=O)O)c3)CC[C@]3(C)C(CCC4[C@@]5(C)CCC(=O)C(C)(C)C5CC[C@]43C)C12` (some centres unmarked) [Example 141] showed an IC50 [1] of 157 nM and an EC50 [2] of 1500 nM.

Work on `C=C(C)[C@@H]1CC[C@]2(CNCc3cccc(C(=O)NCc4cccc(C(=O)O)c4)c3)CC[C@@]3(C)C(CCC4[C@@]5(C)CC[C@H](O)C(C)(C)C5CC[C@]43C)C12` (some centres unmarked) [Example 143] yielded an IC50 [1] of 120 nM and an EC50 [2] of 1300 nM.

`C=C(C)[C@@H]1CC[C@]2(C(=O)NCCc3cccc(C(=O)NC(Cc4ccc(OCC(=O)O)cc4)C(=O)O)c3)CC[C@]3(C)C(CCC4[C@@]5(C)CC[C@H](O)C(C)(C)C5CC[C@]43C)C12` (some centres unmarked) [Example 146] showed an IC50 [1] of 197 nM and an EC50 [2] of 3300 nM.

With `C=C(C)[C@@H]1CC[C@]2(C(=O)NCCc3cccc(C(=O)NCCc4ccc(O)cc4)c3)CC[C@]3(C)C(CCC4[C@@]5(C)CC[C@H](O)C(C)(C)C5CC[C@]43C)C12` (some centres unmarked) [Example 147] the IC50 [1] was 26.6 nM and the EC50 [2] was 30 nM.

`C=C(C)[C@@H]1CC[C@]2(C(=O)NCCc3cccc(C(=O)NCc4ccc(S(=O)(=O)NCCN5CCOCC5)cc4)c3)CC[C@]3(C)C(CCC4[C@@]5(C)CC[C@H](O)C(C)(C)C5CC[C@]43C)[C@@H]12` (some centres unmarked) [Example 148] gave an IC50 [1] of 6 nM and an EC50 [2] of 53 nM.

For `C=C(C)[C@@H]1CC[C@]2(C(=O)NCCc3cccc(C(=O)NCc4ccc(N)cn4)c3)CC[C@]3(C)C(CCC4[C@@]5(C)CC[C@H](O)C(C)(C)C5CC[C@]43C)[C@@H]12` (some centres unmarked) [Example 149], the IC50 [1] was 23 nM and the EC50 [2] was 88 nM.

`C=C(C)[C@@H]1CC[C@]2(C(=O)NCCc3cccc(C(=O)NCc4ccccn4)c3)CC[C@]3(C)C(CCC4[C@@]5(C)CC[C@H](O)C(C)(C)C5CC[C@]43C)C12` (some centres unmarked) [Example 150] showed an IC50 [1] of 24 nM and an EC50 [2] of 122 nM.

Compound `C=C(C)[C@@H]1CC[C@]2(C(=O)NCCc3cccc(C(=O)NCCc4c[nH]c5ccccc45)c3)CC[C@]3(C)C(CCC4[C@@]5(C)CC[C@H](O)C(C)(C)C5CC[C@]43C)C12` (some centres unmarked) [Example 151] has an IC50 [1] of 85 nM and an EC50 [2] of 325 nM.

Compound `C=C(C)[C@@H]1CC[C@]2(C(=O)NCCc3cccc(C(=O)NCc4nc(C(=O)OC)co4)c3)CC[C@]3(C)C(CCC4[C@@]5(C)CC[C@H](O)C(C)(C)C5CC[C@]43C)C12` (some centres unmarked) [Example 152] has an IC50 [1] of 36 nM and an EC50 [2] of 14 nM.

`C=C(C)[C@@H]1CC[C@]2(C(=O)NCCc3cccc(C(=O)NCc4nc(C(=O)O)co4)c3)CC[C@]3(C)C(CCC4[C@@]5(C)CC[C@H](O)C(C)(C)C5CC[C@]43C)C12` (some centres unmarked) [Example 153] was tested, and the IC50 [1] was 44.7 nM and the EC50 [2] was 14 nM.

Compound `C=C(C)[C@@H]1CC[C@]2(C(=O)NCCc3cccc(C(=O)NCc4cccc(C(=O)OC)n4)c3)CC[C@]3(C)C(CCC4[C@@]5(C)CC[C@H](O)C(C)(C)C5CC[C@]43C)C12` (some centres unmarked) [Example 154] has an IC50 [1] of 34 nM and an EC50 [2] of 8 nM.

In the case of `C=C(C)[C@@H]1CC[C@]2(C(=O)NCCc3cccc(C(=O)NCc4ccc(C(=O)OC)o4)c3)CC[C@]3(C)C(CCC4[C@@]5(C)CC[C@H](O)C(C)(C)C5CC[C@]43C)C12` (some centres unmarked) [Example 155], the IC50 [1] is reported as 25.6 nM and the EC50 [2] is reported as 17 nM.

For `C=C(C)[C@@H]1CC[C@]2(C(=O)NCCc3cccc(C(=O)NCc4ccc(C(=O)O)o4)c3)CC[C@]3(C)C(CCC4[C@@]5(C)CC[C@H](O)C(C)(C)C5CC[C@]43C)C12` (some centres unmarked) [Example 156], the IC50 [1] was 51 nM and the EC50 [2] was 8 nM.

`C=C(C)[C@@H]1CC[C@]2(C(=O)NCCc3cccc(C(=O)NCc4cnc(C)cn4)c3)CC[C@]3(C)C(CCC4[C@@]5(C)CC[C@H](O)C(C)(C)C5CC[C@]43C)C12` (some centres unmarked) [Example 157] showed an IC50 [1] of 32 nM and an EC50 [2] of 111 nM.

For `C=C(C)[C@@H]1CC[C@]2(C(=O)NCCc3cccc(C(=O)N[C@@H](C)c4ccccn4)c3)CC[C@]3(C)C(CCC4[C@@]5(C)CC[C@H](O)C(C)(C)C5CC[C@]43C)C12` (some centres unmarked) [Example 158], the IC50 [1] was 249 nM and the EC50 [2] was > 10000 nM.

In the case of `C=C(C)[C@@H]1CC[C@]2(C(=O)NCCc3cccc(C(=O)NC(C)(C)c4ccccn4)c3)CC[C@]3(C)C(CCC4[C@@]5(C)CC[C@H](O)C(C)(C)C5CC[C@]43C)C12` (some centres unmarked) [Example 159], the IC50 [1] is reported as 250 nM and the EC50 [2] is reported as > 10000 nM.
